For assay [1], the system named is CASOB (Sicklepod). As to the kind of experiment: Postemergence herbicidal evaluation. It counts as in vivo, Cassia obtusifolia. As to conditions: postemergence. Summed up: (§1)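 Herbicidal effect was judged by eye on a 0–9 scale covering stand, vigor, deformity, size and chlorosis, compared with controls, four to five weeks after seedlings about two weeks old were sprayed (40 psi, ~0.0156–0.500 kg/ha).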

Assay [2] concerns CHEAL (Lambsquarters, Common). As to the kind of experiment: Postemergence herbicidal evaluation. It counts as in vivo, Chenopodium album. As to conditions: postemergence. Summed up:
as §1

Assay [3] has as its system TRZAWR (Wheat, Winter, cv Riband). Kind of assay: Postemergence herbicidal evaluation. In kind it is in vivo, Triticum aestivum. As to conditions: postemergence. The procedure, abridged:
as §1

Assay [4] concerns CHEAL (Lambsquarters, Common). Kind of assay: Preemergence herbicidal evaluation. In kind it is in vivo, Chenopodium album. As to conditions: rated 4-5 weeks after treatment; for CHEAL rating: preemergence, 0-9 scale. Summed up:
(§2)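 Rating at 4–5 wk post-spray on a 0–9 visual scale vs control. Application: aqueous acetone, ~0.0156–0.500 kg/ha, to soil surface after seeding, preemergence.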

The test system of assay [5] is ORYSAT (Rice, Tebonnet). As to the kind of experiment: Preemergence herbicidal evaluation. In kind it is in vivo, Oryza sativa, (L.) Tebonnet. Particulars: rated 4-5 weeks after treatment; for ORYSAT rating: preemergence, 0-9 scale. The procedure, abridged: as §2
[6] abbreviates: rate 0.0625 kg/ha, rating scale 0-9.
Where [7] appears, read: rate 0.1250 kg/ha, rating scale 0-9.
Setting [8] is: rate 0.2500 kg/ha, rating scale 0-9.
The mark [9] stands for this setting: rate 0.0156 kg/ha, rating scale 0-9.
Where [10] appears, read: rate 0.0313 kg/ha, rating scale 0-9.

For `CCOC(=O)C(c1ccc(Cl)cc1)N1C(=O)CSC1=Nc1cc(-n2c(=O)cc(C(F)(F)F)n(C)c2=O)c(F)cc1Cl` (racemic) [Compound 79, Ethyl α-(p-chlorophenyl)-2-{{2-chloro-5-[3,6-dihydro-3-methyl-2,6-dioxo-4-(trifluoromethyl)-1(2H)-pyrimidinyl]-4-fluorophenyl}imino}-4-oxo-3-thiazolidineacetate, DL-], the CASOB herbicidal rating in assay [1] (rate 0.0158 kg/ha), in assay [1] (rate 0.0315 kg/ha) and in assay [1] (rate 0.0630 kg/ha) was 1.0 throughout. In addition, the CHEAL herbicidal rating in assay [2] (rate 0.0158 kg/ha) worked out at 1.0; in assay [2] (rate 0.0315 kg/ha), 7.0; in assay [2] (rate 0.0630 kg/ha), 7.0. For the same molecule, the TRZAWR herbicidal rating worked out at 3.0 in assay [3] (rate 0.0158 kg/ha), 2.5 in assay [3] (rate 0.0315 kg/ha) and 5.0 in assay [3] (rate 0.0630 kg/ha). For the same molecule, the “Preemergence herbicidal rating CHEAL” value in assay [4] (rate 0.0313 kg/ha), in assay [4] (rate 0.0625 kg/ha), in assay [4] (rate 0.1250 kg/ha) and in assay [4] (rate 0.2500 kg/ha) was 9.0 in each case. For the same molecule, the “Preemergence herbicidal rating ORYSAT” value worked out at 0.0 in assay [5] (rate 0.0313 kg/ha), 1.0 in assay [5] (rate 0.0625 kg/ha), 0.0 in assay [5] (rate 0.1250 kg/ha) and 1.0 in assay [5] (rate 0.2500 kg/ha).

In the case of `CCOC(=O)CN1C(=O)C(SC)SC1=Nc1cc(-n2c(=O)cc(C(F)(F)F)n(C)c2=O)c(F)cc1Cl` (stereo not shown) [Compound 125, Ethyl 2-{{2-chloro-5-[3,6-dihydro-3-methyl-2,6-dioxo-4-(trifluoromethyl)-1(2H)-pyrimidinyl]-4-fluorophenyl}imino}-5-(methylthio)-4-oxo-3-thiazolidineacetate], the “herbicidal rating CASOB” value is 1.0 in assay [1] (rate 0.0156 kg/ha), 2.0 in assay [1] (rate 0.0313 kg/ha) and 2.0 in assay [1] (rate 0.0625 kg/ha). The “herbicidal rating CHEAL” value in assay [2] (rate 0.0156 kg/ha) came to 3.0; in assay [2] (rate 0.0313 kg/ha), 9.0; in assay [2] (rate 0.0625 kg/ha) it was 9.0. Moreover, the “herbicidal rating TRZAWR” value in assay [3] (rate 0.0156 kg/ha) is recorded as 4.3; in assay [3] (rate 0.0313 kg/ha) it was 5.0; in assay [3] (rate 0.0625 kg/ha), 5.0. Besides, the “Preemergence herbicidal rating CHEAL” value in assay [4] (rate 0.0156 kg/ha), in assay [4] (rate 0.0313 kg/ha), in assay [4] (rate 0.0625 kg/ha), in assay [4] (rate 0.1250 kg/ha), in assay [4] (rate 0.2500 kg/ha) and in assay [4] (rate 0.5000 kg/ha) was 9.0 each time. Also, the “Preemergence herbicidal rating ORYSAT” value in assay [5] (rate 0.0156 kg/ha) worked out at 0.0; in assay [5] (rate 0.0313 kg/ha), 0.0; in assay [5] (rate 0.0625 kg/ha) it was 1.0; in assay [5] (rate 0.1250 kg/ha), 1.0; in assay [5] (rate 0.2500 kg/ha), 4.0; in assay [5] (rate 0.5000 kg/ha), 4.0.

As to `COCCN1C(=O)CSC1=Nc1cc(-n2c(=O)cc(C(F)(F)F)n(C)c2=O)c(F)cc1Cl` [Compound 155, 3-{4-Chloro-2-fluoro-5-{[3-(2-methoxyethyl)-4-oxo-2-thiazolidinylidene]amino}phenyl}-1-methyl-6-(trifluoromethyl)-2,4(1H,3H)-pyrimidinedione], the “herbicidal rating CASOB” value in assay [1] (rate 0.0156 kg/ha), in assay [1] (rate 0.0313 kg/ha) and in assay [1] (rate 0.0625 kg/ha) was 0.0 each time. Further, the “herbicidal rating CHEAL” value in assay [2] (rate 0.0156 kg/ha), in assay [2] (rate 0.0313 kg/ha) and in assay [2] (rate 0.0625 kg/ha) was 0.0 each time. The results for the “herbicidal rating TRZAWR” value in assay [3] (rate 0.0156 kg/ha), in assay [3] (rate 0.0313 kg/ha) and in assay [3] (rate 0.0625 kg/ha) were 1.0, 2.0 and 3.0, respectively. For the same molecule, the results for the “Preemergence herbicidal rating CHEAL” value in assay [4] (setting [6]), in assay [4] (setting [7]) and in assay [4] (setting [8]) were 0.0, 9.0 and 9.0, respectively. Moreover, the “Preemergence herbicidal rating ORYSAT” value turned out to be 0.0 in assay [5] (setting [6]), 0.0 in assay [5] (setting [7]) and 2.0 in assay [5] (setting [8]).

As for `Cn1c(C(F)(F)F)cc(=O)n(-c2cc(N=C3SCC(=O)N3[C@H](Cc3ccccc3)C(=O)O)c(Cl)cc2F)c1=O` [Compound 69, α-Benzyl-2-{{2-chloro-5-[3,6-dihydro-3-methyl-2,6-dioxo-4-(trifluoromethyl)-1(2H)-pyrimidinyl]-4-fluorophenyl}imino}-4-oxo-3-thiazolidineacetic acid, D-], the figures for the CASOB herbicidal rating in assay [1] (rate 0.0158 kg/ha), in assay [1] (rate 0.0315 kg/ha) and in assay [1] (rate 0.0630 kg/ha) were 1.0, 2.0 and 2.0, respectively. In addition, the CHEAL herbicidal rating in assay [2] (rate 0.0158 kg/ha) is listed as 7.0; in assay [2] (rate 0.0315 kg/ha), 9.0. Moreover, the values for the TRZAWR herbicidal rating in assay [3] (rate 0.0158 kg/ha), in assay [3] (rate 0.0315 kg/ha) and in assay [3] (rate 0.0630 kg/ha) were 3.0, 3.0 and 4.5, respectively. The “Preemergence herbicidal rating CHEAL” value in assay [4] (rate 0.0156 kg/ha), in assay [4] (rate 0.0313 kg/ha), in assay [4] (rate 0.0625 kg/ha), in assay [4] (rate 0.1250 kg/ha) and in assay [4] (rate 0.2500 kg/ha) was 9.0 each time. Further, the “Preemergence herbicidal rating ORYSAT” value was determined as 0.0 in assay [5] (rate 0.0156 kg/ha); 0.0 in assay [5] (rate 0.0313 kg/ha); 0.0 in assay [5] (rate 0.0625 kg/ha); 1.0 in assay [5] (rate 0.1250 kg/ha); 1.0 in assay [5] (rate 0.2500 kg/ha).

Turning to `COc1ccc(CN2C(=O)CSC2=Nc2cc(-n3c(=O)cc(C(F)(F)F)n(C)c3=O)c(F)cc2Cl)c(OC)c1` [Compound 139, 3-{4-Chloro-5-{[3-(2,4-dimethoxybenzyl)-4-oxo-2-thiazolidinylidene]amino}-2-fluorophenyl}-1-methyl-6-(trifluoromethyl)-2,4(1H,3H)-pyrimidinedione], the “herbicidal rating CASOB” value in assay [1] (rate 0.0156 kg/ha) worked out at 4.0; in assay [1] (rate 0.0313 kg/ha) it was 5.0; in assay [1] (rate 0.0625 kg/ha) it was 9.0. For the same molecule, the “herbicidal rating CHEAL” value in assay [2] (rate 0.0156 kg/ha), in assay [2] (rate 0.0313 kg/ha) and in assay [2] (rate 0.0625 kg/ha) was 9.0 each time. In addition, the “herbicidal rating TRZAWR” value was found to be 2.5 in assay [3] (rate 0.0156 kg/ha), 3.0 in assay [3] (rate 0.0313 kg/ha) and 3.5 in assay [3] (rate 0.0625 kg/ha). The “Preemergence herbicidal rating CHEAL” value is given as 0.0 in assay [4] (setting [9]); 7.0 in assay [4] (setting [10]); 9.0 in assay [4] (setting [6]); 9.0 in assay [4] (setting [7]); 9.0 in assay [4] (setting [8]). Moreover, the “Preemergence herbicidal rating ORYSAT” value in assay [5] (setting [9]) worked out at 0.0; in assay [5] (setting [10]) it was 0.0; in assay [5] (setting [6]) it was 0.0; in assay [5] (setting [7]) it was 1.0; in assay [5] (setting [8]), 2.0.

As for `C=CCOC(=O)CN1C(=O)CSC1=Nc1cc(-n2c(=O)cc(C(F)(F)F)n(C)c2=O)c(F)cc1Cl` [Compound 106, Allyl 2-{{2-chloro-5-[3,6-dihydro-3-methyl-2,6-dioxo-4-(trifluoromethyl)-1(2H)-pyrimidinyl]-4-fluorophenyl}imino}-4-oxo-3-thiazolidineacetate], the “herbicidal rating CASOB” value in assay [1] (rate 0.0158 kg/ha) was found to be 1.0; in assay [1] (rate 0.0315 kg/ha), 1.0; in assay [1] (rate 0.0630 kg/ha) it was 3.0. Besides, the “herbicidal rating CHEAL” value in assay [2] (rate 0.0158 kg/ha), in assay [2] (rate 0.0315 kg/ha) and in assay [2] (rate 0.0630 kg/ha) was 7.0 in each case. Moreover, the results for the “herbicidal rating TRZAWR” value in assay [3] (rate 0.0158 kg/ha), in assay [3] (rate 0.0315 kg/ha) and in assay [3] (rate 0.0630 kg/ha) were 2.5, 3.0 and 4.5, respectively. In addition, the CHEAL rating in assay [4] (0.0313 kg/ha), in assay [4] (0.0625 kg/ha), in assay [4] (0.1250 kg/ha) and in assay [4] (0.2500 kg/ha) was 9.0 throughout. The “Preemergence herbicidal rating CHEAL” value in assay [4] (rate 0.0156 kg/ha) amounted to 8.0. In addition, the ORYSAT rating is recorded as 1.0 in assay [5] (0.0313 kg/ha), 2.0 in assay [5] (0.0625 kg/ha), 2.5 in assay [5] (0.1250 kg/ha) and 5.0 in assay [5] (0.2500 kg/ha). Also, the “Preemergence herbicidal rating ORYSAT” value in assay [5] (rate 0.0156 kg/ha) amounted to 1.5.

The values above are taken from patent publication US20020137929A1, “1 - (3-heterocyclylphenyl) isothiourea, -isourea, -guanidine and -amidine herbicidal agents” (Intellectual Property Department, BASF Aktiengesellschaft, priority 1998, published 2002).
